From patent US7342027B2 (Yuhan Corporation, priority 2002, dated 2008)
Structures can show the parent of a compound that is named as a salt.

Target: T1, Recombinant human cathepsin K (Homo sapiens, UniProt P43235)
T1 construct: made in house
T1 sequence (P43235 115-329): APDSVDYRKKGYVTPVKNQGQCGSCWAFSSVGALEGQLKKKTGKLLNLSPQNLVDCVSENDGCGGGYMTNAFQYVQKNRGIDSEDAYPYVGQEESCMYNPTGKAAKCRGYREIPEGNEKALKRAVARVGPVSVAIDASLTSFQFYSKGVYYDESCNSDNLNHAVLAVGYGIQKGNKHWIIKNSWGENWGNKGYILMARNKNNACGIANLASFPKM
Assay: Inhibition of cathepsin K activity (Z-Phe-Arg-AMC fluorescence assay)
Assay type: biochemical
Settings: 25 uM Z-Phe-Arg-AMC, pH 5.5, 1 hour at 37° C.
Method: Test 1: Inhibition of Cathepsin K Activity
Recombinant human cathepsin K was prepared in accordance with Biol, Pharm. Bull, 19(8), 1026-1031 (1996) and J. Biol. Chem. 271, 2126-2132 (1996). Stock solutions of 2.5 mM Z-Phe-Arg-AMC (BACHEM, 1-1160) and all inhibitors were prepared in dimethyl sulfoxide. In vitro assays for cathepsin K were conducted with 25 uM Z-Phe-Arg-AMC as a substrate at pH 5.5 in 100 mM Na acetate buffer containing 20 mM cysteine and 5 mM EDTA in the presence of 2% final concentration of DMSO. Reaction was initiated by the addition of enzyme to samples, which were then incubated for 1 hour at 37° C. The fluorescence was monitored at 460 nm (excitation wavelength 360 nm) using fluorescence plate reader.
The concentrations of the test compounds, which inhibit 50% of cathepsin K activity, are represented as IC50 in Table 1.

Structure (SMILES) | IC50
Cc1cc(C(=O)NC2(C(=O)NC3CCN(c4ccccc4S(C)(=O)=O)CC3=O)CCCCC2)oc1C (centres unmarked) [Example 125, 4-[N-[1-[N-(4,5-dimethyl-furan-2-ylcarbonyl)amino]cyclohexanecarbonyl]amino]-1-(2-methanesulfonylphenyl)piperidin-3-one] | 6.8 nM
CC(C)(C)OC(=O)c1ccccc1N1CCC(NC(=O)C2(NC(=O)c3cc4ccccc4s3)CCCCC2)C(=O)C1 (centres unmarked) [Example 129, 4-[N-[1-[N-(benzothiophen-2-ylcarbonyl)amino]cyclohexanecarbonyl]amino]-1-(2-tert-butoxycarbonylphenyl)piperidin-3-one] | 0.45 nM
O=C(NC1(C(=O)NC2CCN(c3ccc(Cl)cc3F)CC2=O)CCCCC1)c1cc2ccccc2s1 (centres unmarked) [Example 131, 4-[N-[1-[N-(benzothiophen-2-ylcarbonyl)amino]cyclohexanecarbonyl]amino]-1-(4-chloro-2-fluoro-phenyl)piperidin-3-one] | 4.11 nM
Cc1c(C(=O)NC2(C(=O)NC3CCN(c4cc(F)ccc4C(F)(F)F)CC3=O)CCCCC2)oc2ccccc12 (centres unmarked) [Example 134, 4-[N-[1-[N-(3-methyl-benzofuran-2-ylcarbonyl)amino]cyclohexanecarbonyl]amino]-1-(5-fluoro-2-trifluoromethylphenyl)piperidin-3-one] | 6.09 nM
CS(=O)(=O)c1ccccc1N1CCC(NC(=O)C2(NC(=O)c3ccc4ccccc4n3)CCCCC2)C(=O)C1 (centres unmarked) [Example 136, 4-[N-[1-[N-(quinolin-2-ylcarbonyl)amino]cyclohexanecarbonyl]amino]-1-(2-methanesulfonylphenyl)piperidin-3-one] | 1.62 nM
O=C(NC1(C(=O)NC2CCN(c3ccccc3[N+](=O)[O-])CC2=O)CCCCC1)c1ccc2ccccc2n1 (centres unmarked) [Example 138, 4-[N-[1-[N-(quinolin-2-ylcarbonyl)amino]cyclohexanecarbonyl]amino]-1-(2-nitrophenyl)piperidin-3-one] | 4.82 nM
CS(=O)(=O)c1ccccc1N1CCC(NC(=O)C2(NC(=O)c3ccc(C(F)(F)F)cc3)CCCCC2)C(=O)C1 (centres unmarked) [Example 154, 4-[N-[1-[N-(4-trifluoromethylbenzoyl)amino]cyclohexanecarbonyl]amino]-1-(2-methanesulfonylphenyl)piperidin-3-one] | 1.37 nM
CS(=O)(=O)c1ccccc1N1CCC(NC(=O)C2(NC(=O)c3ccc(OCCN4CCOCC4)cc3)CCCCC2)C(=O)C1 (centres unmarked) [Example 155, 4-[N-[1-[N-(4-(2-morpholinethoxy)benzoyl)amino]cyclohexanecarbonyl]amino]-1-(2-methanesulfonylphenyl)piperidin-3-one] | 1.29 nM
CS(=O)(=O)c1ccccc1N1CCC(NC(=O)C2(NC(=O)c3ccc(OCCN4CCCC4)cc3)CCCCC2)C(=O)C1 (centres unmarked) [Example 156, 4-[N-[1-[N-(4-(2-pyrrolidinethoxy)benzoyl)amino]cyclohexanecarbonyl]amino]-1-(2-methanesulfonylphenyl)piperidin-3-one] | 1.9 nM
CS(=O)(=O)c1ccccc1N1CCC(NC(=O)C2(NC(=O)c3ccc(OCCN4CCOCC4)cc3)CCCCC2)C(=O)C1 (centres unmarked) [Example 158, 4-[N-[1-[N-(4-(2-morpholinethoxy)benzoyl)amino]cyclohexanecarbonyl]amino]-1-(2-methanesulfonylphenyl)piperidin-3-one hydrochloride] | 3.15 nM
CS(=O)(=O)c1ccccc1N1CCC(NC(=O)C2(NC(=O)c3ccc(OCCN4CCCC4)cc3)CCCCC2)C(=O)C1 (centres unmarked) [Example 159, 4-[N-[1-[N-(4-(2-pyrrolidinethoxy)benzoyl)amino]cyclohexanecarbonyl]amino]-1-(2-methanesulfonylphenyl)piperidin-3-one hydrochloride] | 3.25 nM
CS(=O)(=O)c1ccccc1N1CCC(NC(=O)C2(NC(=O)c3ccc(OCCN4CCCCC4)cc3)CCCCC2)C(=O)C1 (centres unmarked) [Example 160, 4-[N-[1-[N-(4-(2-piperidinethoxy)benzoyl)amino]cyclohexanecarbonyl]amino]-1-(2-methanesulfonylphenyl)piperidin-3-one hydrochloride] | 3.14 nM
CS(=O)(=O)c1ccccc1N1CCC(NC(=O)C2(NC(=O)c3cc4cc(OCCN5CCCC5)ccc4o3)CCCCC2)C(=O)C1 (centres unmarked) [Example 165, 4-[N-[1-[N-(5-(2-pyrrolidinethoxy)benzofuran-2-ylcarbonyl)amino]cyclohexanecarbonyl]amino]-1-(2-methanesulfonylphenyl)piperidin-3-one hydrochloride] | 1.63 nM
CS(=O)(=O)c1ccccc1N1CCC(NC(=O)C2(NC(=O)c3ccc(N4CCCC4=O)cc3)CCCCC2)C(=O)C1 (centres unmarked) [Example 167, 4-[N-[1-[N-(4-(2-oxopyrrolidine)benzoyl)amino]cyclohexanecarbonyl]amino]-1-(2-methanesulfonylphenyl)piperidin-3-one] | 3.07 nM
CS(=O)(=O)c1ccccc1N1CCC(NC(=O)C2(NC(=O)c3cc(N4CCCC4=O)co3)CCCCC2)C(=O)C1 (centres unmarked) [Example 168, 4-[N-[1-[N-(4-(2-oxopyrrolidine)furan-2-ylcarbonyl)amino]cyclohexanecarbonyl]amino]-1-(2-methanesulfonylphenyl)piperidin-3-one] | 15.8 nM
O=C(NC1(C(=O)NC2CCN(c3ccc(F)cc3N3CCCC3=O)CC2=O)CCCCC1)c1ccc(OCCN2CCOCC2)cc1 (centres unmarked) [Example 170, 4-[N-[1-[N-(4-(2-morpholinethoxy)benzoyl)amino]cyclohexanecarbonyl]amino]-1-[4-fluoro-2-(pyrrolidin-2-one-1-yl)phenyl]piperidin-3-one] | 1.69 nM

The remaining compounds from weak to strong by IC50, led by results:

IC50 | Structure (SMILES)
1.22 nM | Cc1c(C(=O)NC2(C(=O)NC3CCN(c4ccccc4S(C)(=O)=O)CC3=O)CCCCC2)oc2ccccc12 (centres unmarked) [Example 133, 4-[N-[1-[N-(3-methyl-benzofuran-2-ylcarbonyl)amino]cyclohexanecarbonyl]amino]-1-(2-methanesulfonylphenyl)piperidin-3-one]
1.2 nM | O=C(NC1(C(=O)NC2CCN(c3cc(C(F)(F)F)ccc3Cl)CC2=O)CCCCC1)c1cc2ccccc2s1 (centres unmarked) [Example 130, 4-[N-[1-[N-(benzothiophen-2-ylcarbonyl)amino]cyclohexanecarbonyl]amino]-1-(2-chloro-5-trifluoromethylphenyl)piperidin-3-one]
0.71 nM | CS(=O)(=O)c1ccccc1N1CCC(NC(=O)C2(NC(=O)c3cc4cc(OCCN5CCCCC5)ccc4o3)CCCCC2)C(=O)C1 (centres unmarked) [Example 166, 4-[N-[1-[N-(5-(2-piperidinethoxy)benzofuran-2-ylcarbonyl)amino]cyclohexanecarbonyl]amino]-1-(2-methanesulfonylphenyl)piperidin-3-one hydrochloride]
0.67 nM | CS(=O)(=O)c1ccccc1N1CCC(NC(=O)C2(NC(=O)c3cc4ccccc4s3)CCCCC2)C(=O)C1 (centres unmarked) [Example 128, 4-[N-[1-[N-(benzothiophen-2-ylcarbonyl)amino]cyclohexanecarbonyl]amino]-1-(2-methanesulfonylphenyl)piperidin-3-one]
0.58 nM | CS(=O)(=O)Nc1cc(F)ccc1N1CCC(NC(=O)C2(NC(=O)c3ccc(OCCN4CCOCC4)cc3)CCCCC2)C(=O)C1 (centres unmarked) [Example 169, 4-[N-[1-[N-(4-(2-morpholinethoxy)benzoyl)amino]cyclohexanecarbonyl]amino]-1-(4-fluoro-2-methanesulfonylaminophenyl)piperidin-3-one]
0.55 nM | CS(=O)(=O)c1ccccc1N1CCC(NC(=O)C2(NC(=O)c3cc4cc(OCCN5CCCCC5)ccc4o3)CCCCC2)C(=O)C1 (centres unmarked) [Example 163, 4-[N-[1-[N-(5-(2-piperidinethoxy)benzofuran-2-ylcarbonyl)amino]cyclohexanecarbonyl]amino]-1-(2-methanesulfonylphenyl)piperidin-3-one]
0.52 nM | CS(=O)(=O)c1ccccc1N1CCC(NC(=O)C2(NC(=O)c3cc4cc(OCCN5CCOCC5)ccc4o3)CCCCC2)C(=O)C1 (centres unmarked) [Example 164, 4-[N-[1-[N-(5-(2-morpholinethoxy)benzofuran-2-ylcarbonyl)amino]cyclohexanecarbonyl]amino]-1-(2-methanesulfonylphenyl)piperidin-3-one hydrochloride]
0.45 nM | CS(=O)(=O)c1ccccc1N1CCC(NC(=O)C2(NC(=O)c3cc4cc(OCCN5CCCC5)ccc4o3)CCCCC2)C(=O)C1 (centres unmarked) [Example 162, 4-[N-[1-[N-(5-(2-pyrrolidinethoxy)benzofuran-2-ylcarbonyl)amino]cyclohexanecarbonyl]amino]-1-(2-methanesulfonylphenyl)piperidin-3-one]
0.41 nM | CS(=O)(=O)c1ccccc1N1CCC(NC(=O)C2(NC(=O)c3cc4cc(OCCN5CCOCC5)ccc4o3)CCCCC2)C(=O)C1 (centres unmarked) [Example 161, 4-[N-[1-[N-(5-(2-morpholinethoxy)benzofuran-2-ylcarbonyl)amino]cyclohexanecarbonyl]amino]-1-(2-methanesulfonylphenyl)piperidin-3-one]
0.36 nM | CS(=O)(=O)c1ccccc1N1CCC(NC(=O)C2(NC(=O)c3ccc(-c4ccccc4)cc3)CCCCC2)C(=O)C1 (centres unmarked) [Example 153, 4-[N-[1-[N-(4-biphenylcarbonyl)amino]cyclohexanecarbonyl]amino]-1-(2-methanesulfonylphenyl)piperidin-3-one]
